Where “and” joins values, the source holds several entries; their conditions need not be identical. Equal entries are not always repeated. ± gives the expanded uncertainty stated by the source.
Test: molar heat capacity at constant pressure
Conditions: 298.15 K; 101.33 kPa; Liquid; Large sample (1 g) DSC

Structure (SMILES) | molar heat capacity at constant pressure
[2H]c1c([2H])c([2H])c(C([2H])([2H])[2H])c([2H])c1[2H] [toluene-d8] | 176.77 ± 3.5 J/K/mol and 174.28 ± 3.5 J/K/mol
[2H]C([2H])(Cl)Cl [dichloromethane-d2] | 103.08 ± 2.1 J/K/mol and 101.49 ± 2 J/K/mol
CC#N [acetonitrile] | 89.62 ± 1.8 J/K/mol and 88.57 ± 1.8 J/K/mol
ClCCl [dichloromethane] | 97.97 ± 2 J/K/mol and 95.61 ± 1.9 J/K/mol
Cc1ccccc1 [toluene] | 154.75 ± 3.1 J/K/mol and 152.53 ± 3 J/K/mol
ClC(Cl)Cl [trichloromethane] | 112.71 ± 2.2 J/K/mol and 110.74 ± 2.2 J/K/mol
[2H]C(=O)N(C([2H])([2H])[2H])C([2H])([2H])[2H] [N,N-dimethylformamide-d7] | 160.5 ± 3.2 J/K/mol and 159.47 ± 3.2 J/K/mol
[2H]C([2H])([2H])C#N [acetonitrile-d3] | 95.74 ± 1.9 J/K/mol and 95.02 ± 1.9 J/K/mol
CN(C)C=O [dimethylformamide] | 145.78 ± 2.9 J/K/mol and 144.02 ± 2.9 J/K/mol
[2H]C([2H])([2H])S(=O)C([2H])([2H])[2H] [(methyl sulfoxide)-d6] | 165.76 ± 3.3 J/K/mol and 163.87 ± 3.3 J/K/mol
[2H]C(Cl)(Cl)Cl [chloroform-d] | 114.94 ± 2.3 J/K/mol and 111.98 ± 2.2 J/K/mol
CC(C)=O [acetone] | 122.74 ± 2.5 J/K/mol and 120.73 ± 2.4 J/K/mol
[2H]C1([2H])C([2H])([2H])C([2H])([2H])C([2H])([2H])C([2H])([2H])C1([2H])[2H] [cyclohexane-d12] | 185.6 ± 3.7 J/K/mol and 182.57 ± 3.6 J/K/mol
[2H]OC([2H])([2H])[2H] [methanol-d4] | 89.03 ± 1.8 J/K/mol and 87.75 ± 1.8 J/K/mol
[2H]c1c([2H])c([2H])c([2H])c([2H])c1[2H] [benzene-d6] | 152.18 ± 3 J/K/mol and 149.82 ± 3 J/K/mol
[2H]C([2H])([2H])C(=O)C([2H])([2H])[2H] [(D6)-2-propanone] | 134.94 ± 2.7 J/K/mol and 133.6 ± 2.7 J/K/mol
C1CCCCC1 [cyclohexane] | 154.34 ± 3.1 J/K/mol and 150.73 ± 3 J/K/mol
C[S+](C)[O-] [dimethyl sulfoxide] | 150.74 ± 3 J/K/mol and 149.05 ± 3 J/K/mol
CO [methanol] | 80.58 ± 1.6 J/K/mol and 79.07 ± 1.6 J/K/mol
c1ccccc1 [benzene] | 133.82 ± 2.7 J/K/mol and 132.11 ± 2.6 J/K/mol
[2H]C([2H])([2H])O [methanol-d3] | 86.07 ± 1.7 J/K/mol and 84.91 ± 1.7 J/K/mol

Source: the NIST ThermoML archive (doi:10.1016/j.jct.2008.06.008)
